{
  "source": "patent US20220023433A1",
  "about": "“Saponin Conjugates” (Sapreme Technologies B.V., priority 2018, published 2022)",
  "key": {"[1]": {"experiment": "pH dependent hydrolysis of the hydrazone bond followed by MALDI-TOF-MS", "assay_type": "physicochemical", "settings": "HCl solution at pH 3; MALDI-TOF-MS at two points in time"}, "[2]": {"system": "HeLa cells", "experiment": "Cell viability assay (MTS): co-administration with SO1861 and dianthin-EGF, inhibition of SO1861-mediated endosomal escape", "assay_type": "cell-based, human", "settings": "500 nM test substance + SO1861 concentration curve + […] dianthin-EGF, 72 hr", "procedure": "HeLa cells were seeded in DMEM (PAN-Biotech GmbH) supplemented with 10% fetal bovine serum (PAN-Biotech GmbH) and 1% penicillin/streptomycin (PAN-Biotech GmbH), in a 96 well plate at 5,000 c/w in 100 μL/well and incubated overnight at 37° C. and 5% CO2. The next day 20× concentrated stocks of the PAMAM, PAMAM-conjugates, G4-dendron (prepared in Example 3) or chloroquine (Sigma Aldrich) samples were prepared in DMEM. The media was removed from the cell culture plate and replaced by […] culture media, followed by the addition of 10 μL sample/well (from the 20× concentrated stocks) and a 45 min incubation at 37° C. […] Followed by 15 sec sonication and a brief re-heating at 50° C. for 1 min, while shaking at 1,250 rpm. Subsequently a serial dilution of SO1861 was prepared in PBS.\nAs control for the inhibition of endosomal acidification chloroquine was used."}, "[3]": {"system": "breast cancer", "settings": "preclinical models of breast cancer; cited from earlier work"}},
  "data": [
    {"molecule": "CC(=O)OC1C(C)OC(OC2C(C)OC(OC(=O)[C@]34CCC(C)(C)CC3C3=CCC5[C@@]6(C)CC[C@H](OC7OC(C(=O)O)C(O)C(OC8OCC(O)C(O)C8O)C7OC7OC(CO)C(O)C(O)C7O)[C@@](C)(/C=N/NC(=O)CCCCCN7C(=O)C=CC7=O)C6CC[C@@]5(C)[C@]3(C)C[C@H]4O)C(OC3OC(C)C(OC4OCC(O)C(OC5OC(CO)C(O)C(O)C5O)C4O)C(O)C3O)C2O)C(O)C1OC1OCC(O)C(O)C1O", "note": "(stereo partly drawn) [SO1861-EMCH]", "values": [
      {"measurement": "hydrolysis of the hydrazone bond", "setting": "[1]", "value": "the hydrazone bond is responsive towards hydrolysis and gets cleaved"}
    ]},
    {"molecule": "CCN(CC)CCCC(C)Nc1ccnc2cc(Cl)ccc12", "note": "(stereo not drawn) [chloroquine]", "values": [
      {"measurement": "inhibition of SO1861-mediated endosomal escape of the targeted toxin and subsequent cell killing", "setting": "[2]", "value": "inhibit the SO1861-mediated endosomal escape of the targeted toxin and subsequent cell killing"}
    ]},
    {"molecule": "ado-trastuzumab emtansine", "values": [
      {"measurement": "dose levels inducing tumor regression", "setting": "[3]", "value": "≥ 3", "unit": "mg/kg"}
    ]}
  ]
}
